Assay results: paper PMC12648313, “Enhancing the Efficacy, Utility, and Throughput of the Transcription Block Survival Peptide Library Screening Platform” (JACS Au, 2025)

Experiments:
ATF2 bZIP-CRE DNA = test: TBS peptide library screening, competition selection; format: cell-based, human ATF2 bZIP, in E. coli BL21-Gold; conditions: 11.3-million-member library; nine rounds of selection; 9xCRE mDHFR; selective M9, 37 °C
Description: This validates the new TBS design for the introduction of a transcriptional block and for the ability of antagonist peptides to restore bacterial growth in the CRE/CREB systems. We next constructed an 11.3-million-member peptide library to identify antagonists of ATF2, representing the first such effort to target this TF. This library design includes an N-terminal acidic domain, developed by Vinson and coworkers to engage bZIP DNA-binding domains (DBDs), followed by a semirandomized LZ region. Canonical coiled coil heptad repeat e and g positions were semirandomized to include glu, gln or lys options, with two exceptions to increase library diversity: e7 (ile, asn, asp or val) and g8 (leu, gln, glu or val). The a positions were randomized to select from leu, ile or val, to optimize hydrophobic packing in the coiled coil core, except a6 which also included asn or asp to investigate potential core polar interactions. The d positions were fixed as leu to promote formation of a desired parallel, dimeric coiled coil. […]
colonies: E = […] where E is the percentage of the library missing, m is the number of colonies collected and n is the library size. Library DNA quality was assessed by sequencing both the DNA pool and a number of single colonies to show degenerate codons in the correct positions in the pool and to show a diversity of library members from single […]

ATF2 = target: T1, ATF2 (Homo sapiens, UniProt P15336); test: Isothermal titration calorimetry; format: binding; conditions: 20 °C, pH 7.4, average of three independent experiments ± SD
T1 construct: human ATF2 bZIP domain spans from Asp352 to Gln410; made in house; host or cells: chemical synthesis (Fmoc solid-phase peptide synthesis), no expression host
T1 sequence (P15336 352-410): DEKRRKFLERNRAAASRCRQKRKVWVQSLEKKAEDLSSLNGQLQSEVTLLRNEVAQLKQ
Description: 5 Biophysical characterization of the ATF2-ATF2W interaction. (A) CD spectra of ATF2 and ATF2W indicating an increase in helicity upon mixture of the two components, indicative of the formation of a heterodimeric coiled coil. (B) CD thermal denaturation experiment indicates a T m shift upon mixture of ATF2/ATF2W, supporting the formation of a stable heterodimer. The “average” CD trace in A and B represents an averaged value of the two unbound components which would be the trace for no interaction. (C) ITC data for ATF2W (50 μM) titrated into ATF2 (5 μM) at 20 °C. The raw power compensation plot is shown in the upper graph and the integrated data points and single site model fitted line are shown in the lower graph. […] ATF2W is selective for ATF2, with a ∼ 3-fold reduction in antagonism for CREB1/CRE and cJun/TRE despite high structural and sequence homology. […]
removed before peptide concentration determination.
Peptide samples were suspended in 20
Post-melt scans at 20°C confirmed the
Sequential 2 µL injections of ATF2W (50 µM)
Data from a control experiment whereby […]
errors are given as one standard deviation.
Fluorescence polarisation: Fluorescence polarisation was measured in a CLARIOstar

For “Ac-LEQQLEELAQENEELEKEAAELQQQIARLKNEVAKLENENKTLDREIKALQREYSHKSD-NH2 [ATF2W]”, the “outcome of TBS selection” value (ATF2 bZIP-CRE DNA) was “single dominant hit”, the Kd (ATF2; ATF2W (50 μM) titrated into ATF2 (5 μM), 50 mM potassium phosphate, 150 mM NaCl, 10 mM TCEP, one-site model) was 114 ± 21 nM and the “-TΔS” value (ATF2; ITC) was 40 ± 4 kJ mol^–1. For the same substance, the “N (stoichiometry)” value (ATF2; ITC) was 0.99 ± 0.01 and the ΔH (ATF2; ITC) was −79 ± 3 kJ mol^–1.
